The nature of data set [1]: EF release from the precursor activated with 0.1 N citric acid solution, headspace GC analysis. As to conditions: for EF released: after 120 min. It is filed as physicochemical. How it is done: (§1) The cumulative release of EF from the precursor was determined using an automatic headspace analysis system (FIG. 1). The system comprising of an environmental chamber (MLR-350H, Sanyo Electric Co., Ltd. Japan), a gas chromatograph (GC 6890, Agilent Technologies Inc., Santa Clara, CA, USA) equipped with a flame ionization detector (FID), stream selection valves (EMTCA-CE, VICI Valco Inst., Houston, TX, USA), 1/16 stainless steel tubing, and a control board (SRI Instruments Inc., Las Vegas, Nev., USA). The capillary column used with the GC was Agilent J&W DB-624 (Agilent Technologies Inc., Santa Clara, CA, USA) with 30 m length, 0.53 mm I.D, and 3 μm film thickness. The temperature of the detector and the oven were 200° C. and 40° C., respectively. The flow rates of N2, H2, and O2 were 30, 50, and 200 mL/min, respectively. The calibration curve was prepared by measuring standard headspace concentration of a known amount of EF. Chromatograms were analyzed using the Peak Simple software (393-32 bit, SRI Instruments, CA, USA). At any given sampling point, the total amount of EF released into the headspace (Mt, μL) was determined according to Eqs. 5 to 7 by the addition of the recorded amount (Mr, μL) and the accumulated loss (Ml, μL) of all the previous sampling points up to that point.
To activate the release of EF, two approaches were evaluated. In the first approach, 1-2 mg of the precursor was placed in a 10 mL, glass beaker inside a hermetically sealed 1 L, glass jar as shown in FIG. 1. The headspace gas was extracted through a septum attached to the jar lid at predetermined time intervals. EF release was triggered by distributing 1 mL of 0.1 N citric acid on the precursor particles using a pipette (Fisher Scientific, Ottawa, ON, Canada) just before closing the jar and attaching it to the sampling needle. The release of EF from the precursor was studied at 5, 15, and 25° C.
(§2) The release kinetics of EF from its precursor were modeled using an empirical pseudo-first order reaction kinetic model:
(§3) [formula] where Ce is the concentration of EF in the headspace of the 1 L test jar at an infinite time; C is the EF released at time, t; C0 is the EF initial concentration (which was equal to zero in our case); and k is the release rate constants. Non-linear regression analyses were conducted to fit the release data and determine the model parameters. Results and Discussion Ethyl Formate Precursor Formation

Data set [2] concerns Rhizopus stolonifer, Colletotrichum musae, Erwinia carotovora, and Pseudomonas aeruginosa. As to conditions: EF vapor, agar medium; cited from earlier work.
Data set [3] has as its system test insects in the wheat, split faba beans and sorghum bins. As to conditions: 85 g/t for 4 h followed by second 85 g/t treatment, unsealed metal bins; cited from earlier work.
The test system of another data set is adult weevils. To be noted: 50-55 g/m^3 headspace concentration at 4-8° C. for 24 h, apple; cited from earlier work.
The subject of a further data set is Penicillium digitatum. To be noted: EF vapor 6.5-11.5 mmol/dish, agar medium; cited from earlier work.
For data set [4], the system named is Saccharomyces rouxii and Saccharomyces mellis. As to conditions: EF at 3 mL/lb on Deglet Noor dates; cited from earlier work.
Data set [5] is described as follows: EF release from the precursor on citric acid-acidified nonwoven substrate at different RH, headspace GC analysis. The format is physicochemical. As to conditions: 25° C.; for Ce / k: fitted model. The method, then:
as §1
In the second study, the release of EF was evaluated using an acidified substrate which was prepared by impregnating 0.3 mL of 5% (w/v) citric acid/anhydrous ethanol solution into a 3×3 cm spun-bound polypropylene nonwoven, followed by drying it overnight at 40° C. The precursor (1-2 mg) was then spreaded on the top of the acidified nonwoven layer and exposed to the test relative humidity maintained in a hermetically 1 L glass jar using silica gel (0% RH) or saturated salt solutions (magnesium nitrate, 53% RH; sodium chloride, 75% RH; potassium nitrate, 94% RH) (FIG. 1) (ASTM Standard E104-02 2012; Greenspan, 1977). EF release, expressed in milligram of EF per milligram of precursor per litre of headspace air, was determined using the headspace analysis system described above.
as §2, §3

A short description of data set [6]: Dispersion of precursor particulates in water. The format is physicochemical. To be noted: 5 h of stirring.
Data set [7] relates to spotted-wing Drosophila (SWD) adults. As to the kind of experiment: Mortality of adult SWD on blueberries exposed to EF vapor released from the precursor. It is filed as in vivo. How it is done: The EF precursor from Example 1 was activated using an acid-dispersed substrate (acidified substrate prepared in Example 1) and the moisture generated from fruit respiration to release EF vapor. In a model system utilized spotted-wing Drosophila (SWD), an invasive insect pest of many fruit crops, as the surrogate test organism. The mortality of adult SWD on blueberries was evaluated when they were exposed to the EF vapor released from the precursor. Different amounts of the EF precursor (2.5, 5.0, and 7.5 mg) were activated using the citric acid-dispersed substrate to release 1, 2, and 3 mg of EF, respectively, in a sealed 1 L glass jar containing 0, 20 or 40 g of blueberries and 10 adult SWD.

Data set [8] is described as follows: Storage stability of the precursor at 25° C. under 0, 60 and 100% RH (EF release after storage). It is filed as physicochemical. The method, then:
The stability of the precursor was studied over a period of 30 days. The precursor was stored at 25° C. under 0, 60, and 100% RH. An environmental chamber (MLR-350H, Sanyo Electric Co., Ltd. Japan) was used to control the humidity levels and temperature. Samples from each condition were tested for EF release at 1, 15, and 30th day at 25° C. using 0.1 N citric acid solution as described above.

The mark [9] stands for this setting: 25 °C, fitted pseudo-first order model, listed as A.
Setting [10] is: 25 °C, fitted pseudo-first order model, listed as B.

The mortality is the share of the test organisms that died.

Several values for one entry are separate records, joined by “and”; a condition that tells them apart may be missing. Identical values can stand only once. Marks after values point to notes of the source that are not given here.

As for `CCOC=NNC(=O)CCCCC(=O)NN=COCC` [Precursor A, diethyl N,N′-adipoyldiformohydrazonate], in data set [1] (25 °C, listed as A), the EF released was 89.0 ± 1.5%. For the same compound, in [1] (setting [9]), the Ce is given as 0.350 ± 0.005^a mg/mg · L and the k is on record as 0.037 ± 0.000^a min^−1.

Regarding ethyl formate [EF], the germicidal concentration in data set [2] is given as 6.5-11.5 mmol/dish. For the same compound, the insect control result in data set [3] is “high level of control”. The mortality in the data set with adult weevils is given as 100%. Also, the growth inhibition entry in the data set on Penicillium digitatum was “did not show complete inhibit”. The microbial growth inhibition entry in data set [4] is listed as “able to inhibit the microbial growth”.

Consider `CCOC=NNC(=O)CCCCC(=O)NN=COCC` [Precursor B, diethyl N,N′-adipoyldiformohydrazonate], for which the Ce was 0.792 ± 0.004^c mg/mg · L in data set [1] (5 °C, fitted model); 0.456 ± 0.014^a, b mg/mg · L in data set [1] (15 °C, fitted model); 0.389 ± 0.007^a, b mg/mg · L in data set [1] (setting [10]); 0.072 ± 0.013^c mg/mg · L in [5] (53% RH); 0.200 ± 0.037^b mg/mg · L in data set [5] (75% RH); 0.333 ± 0.019^a mg/mg · L in data set [5] (94% RH). For the same compound, the k is 0.004 ± 0.001^d min^−1 in [1] (5 °C, fitted model); 0.010 ± 0.000^c min^−1 in data set [1] (15 °C, fitted model); 0.030 ± 0.001^b min^−1 in data set [1] (setting [10]); 0.006 ± 0.001^b min^−1 in [5] (53% RH); 0.024 ± 0.004^a min^−1 in data set [5] (75% RH); 0.026 ± 0.002^a min^−1 in data set [5] (94% RH). For the same compound, the EF released was 97.9 ± 2.0% in [1] (25 °C, listed as B); 0.38±0.002 mg/mg · L and 0.382 ± 0.008^a mg/mg · L in [1] (25 °C, mg EF per mg precursor per L headspace). Besides, the EF release entry in data set [5] (0% RH, acid-dispersed substrate) is recorded as “no release was observed”. Further, in [6], the “dispersibility of precursor particulates in water” value is given as “agglomerates presisted even after 5 h of stirring”.

Consider `CCOC=NNC(=O)CCCCC(=O)NN=COCC` [EF precursor, diethyl N,N′-adipoyldiformohydrazonate], for which the mortality in [7] (after 2 h, 1 mg EF (2.5 mg precursor), 1 L jar with 40 g of blueberries) is 63%; in data set [7] (after 2 h, 1 mg EF, jars without blueberries), 16%; in data set [7] (after 2 h, 3 mg EF (7.5 mg precursor), 1 L jar with 40 g of blueberries), 96%; in data set [7] (after 2 h, 3 mg EF, jars without blueberries), 60%; in [7] (at 4 h, all the concentrations), 100%. Further, the “changes in the amount of EF released after storage” value in data set [8] (stored at 0% RH, days 1, 15 and 30) is on record as “no significant (p>0.05) changes”. Besides, the “reduction in EF release” value in data set [8] (stored at 60% RH, after 15 days) came to 18%; in data set [8] (stored at 60% RH, after 30 days) it was 45%; in data set [8] (stored at 100% RH, 15 days) it was 62%; in [8] (stored at 100% RH, 30 days), 81%.

These data come from patent US12655092B2, “Precursor compounds of ester compounds” (University of Guelph, priority 2019, dated 2026).
